Measurements published in patent US20190365641A1, “RAPIDLY DISINTEGRATING FORMULATIONS AND METHODS OF USE” (Impax Laboratories, Inc., priority 2013, published 2019).
Converted amounts (≈) assume the structure as drawn. “And” between values parts separate entries of the source, which are not always exact repeats. Equal entries are not always repeated. Structures can show the parent of a compound that is named as a salt. Where two headings read alike, the source gives them in different places. One block for each compound: values may come before it.

Assays:
[1] = Solubility of apomorphine in phosphate buffers at varying pH (Example 14); assay type: physicochemical; details: stirred ~18 hours
Description: The testing procedure was as followings: • 1. […] The samples were stirred for ˜18 hours before analysis. • 4. […] The samples were stirred for ˜18 hours before analysis. • 5. After stirring ˜2mL of the supernatant was obtained from each vial and centrifuge at 12000 RPM to precipitate un-dissolved drug. • 6. After centrifugations, approximately 1 mL of the supernatant was diluted with approximately 50 mL of water: methanol: H3PO4 (50:50:1.2 v/v) for HPLC analysis according to the procedure described in Example 13 above.

[2] = Dissolution in simulated saliva media (Example 15); assay type: physicochemical; details: simulated saliva pH 6.2, 37° C., two samples per time point, hydrochloride
Description: The dissolution of the composition as described in Example 5 was compared to the dissolution of USP grade apomorphine hydrochloride. The following procedure was employed to obtain the dissolution profiles: • 1.
• 3. Approximately 5 mL or 10 mL of pre-warmed simulated saliva was added to the vials of step 2 according to the table above, and a stop watch was started. The vials with the media were gently swirled to allow the powder in the vials to go into solution. • 4. At specific time points, samples of the media were withdrawn from the vials of step 3 and transferred into the barrel of a 10 mL syringe with a […] filter attached to the tip of the syringe. The solution was pushed through the filter and collected for HPLC assay according to the procedure described in Example 13 above. • 5. For sample time points longer than 5 minutes the vials of step 3 were placed in a 37° C. incubator and shaken at 50 rpms until the collection time point.

[3] = sublingual apomorphine tablets, prolonged use; cited from earlier work
[4] = subcutaneous injections, on-off fluctuations in Parkinson's disease; cited from earlier work

solubility ([1]; pH 2.50 phosphate buffer, hydrochloride, unit assumed): 22800 µg/mL
solubility ([1]; pH 3.00 phosphate buffer, hydrochloride, unit assumed): 21600 µg/mL
solubility ([1]; pH 4.00 phosphate buffer, hydrochloride, unit assumed): 20000 µg/mL
solubility ([1]; pH 5.00 phosphate buffer, hydrochloride, unit assumed): 18800 µg/mL
solubility ([1]; pH 6.00 phosphate buffer, hydrochloride, unit assumed): 7400 µg/mL
solubility ([1]; pH 6.20 phosphate buffer, hydrochloride, unit assumed): 7200 µg/mL
solubility ([1]; pH 6.40 phosphate buffer, hydrochloride, unit assumed): 3700 µg/mL
solubility ([1]; pH 8.00 phosphate buffer, hydrochloride, unit assumed): 270 µg/mL
solubility ([1]; phosphate buffer, pH 6.6, aqueous buffer, thermodynamic from solid, pH 6.60 phosphate buffer, read-out: solubility): 1900 µg/mL
solubility ([1]; phosphate buffer, pH 6.8, aqueous buffer, thermodynamic from solid, pH 6.80 phosphate buffer, read-out: solubility): 1400 µg/mL
solubility ([1]; phosphate buffer, pH 7, aqueous buffer, thermodynamic from solid, pH 7.00 phosphate buffer, read-out: solubility): 1000 µg/mL
solubility ([1]; phosphate buffer, pH 7.4, aqueous buffer, thermodynamic from solid, pH 7.40 phosphate buffer, read-out: solubility): 610 µg/mL
dissolution ([2]; 0.5 min): 30.52% and 27.73%
dissolution ([2]; 1 min): 34.58% and 30.24%
dissolution ([2]; 5 min): 57.54% and 46.57%
dissolution ([2]; 10 min): 46.00% and 52.29%
dissolution ([2]; 30 min): 53.23% and 74.97%
dissolution ([2]; Initial): 22.75% and 19.05%
SMILES: CN1CCc2cccc3c2[C@H]1Cc1ccc(O)c(O)c1-3 [Apomorphine HCl, apomorphine hydrochloride]

SMILES: CN1CCc2cccc3c2[C@H]1Cc1ccc(O)c(O)c1-3 [apomorphine, 6αβ-aporphine-10, 11 diol]
patients with buccal mucosal ulceration (severe stomatitis) [3]: approximately 30%
duration of effect [4]: 45 to 90 min
time to effect after administration [4]: 5 to 15 min

solubility ([1]; pH 2.50 phosphate buffer, unit assumed): 9200 µg/mL (≈ 34.4 mM)
solubility ([1]; pH 3.00 phosphate buffer, unit assumed): 3700 µg/mL (≈ 13.8 mM)
solubility ([1]; pH 4.00 phosphate buffer, unit assumed): 2700 µg/mL (≈ 10.1 mM)
solubility ([1]; pH 5.00 phosphate buffer, unit assumed): 2500 µg/mL (≈ 9.35 mM)
solubility ([1]; pH 6.00 phosphate buffer, unit assumed): 2000 µg/mL (≈ 7.48 mM)
solubility ([1]; pH 6.20 phosphate buffer, unit assumed): 1700 µg/mL (≈ 6.36 mM)
solubility ([1]; pH 6.40 phosphate buffer, unit assumed): 1700 µg/mL (≈ 6.36 mM)
solubility ([1]; pH 6.60 phosphate buffer, unit assumed): 1300 µg/mL (≈ 4.86 mM)
solubility ([1]; pH 6.80 phosphate buffer, unit assumed): 1200 µg/mL (≈ 4.49 mM)
solubility ([1]; pH 7.00 phosphate buffer, unit assumed): 670 µg/mL (≈ 2.51 mM)
solubility ([1]; pH 7.40 phosphate buffer, unit assumed): 400 µg/mL (≈ 1.5 mM)
solubility ([1]; pH 8.00 phosphate buffer, unit assumed): 120 µg/mL (≈ 0.449 mM)
SMILES: CN1CCc2cccc3c2[C@H]1Cc1ccc(O)c(O)c1-3 [Apomorphine Free Base, 6αβ-aporphine-10, 11 diol]
